Test results as given in patent US10774064B2 (Cadent Therapeutics, Inc., priority 2016, dated 2020).

These molecules were tested against T1, small-conductance Ca2+-activated K+ channels (SK channels, subtype 2) (Homo sapiens, UniProt Q9H2S1) (assay: whole-cell patch-clamp of ionic current through SK2 channels in HEK293 cells (SC100)). Conditions: whole-cell patch-clamp, HEK293 cells expressing SK2 channels; concentration that increases the basal current by 100%.
T1 construct: expressed in transfected cells; host or cells: HEK293
Format: cell-based
Procedure, shortened: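 Whole-cell patch-clamp recording of current in HEK293 cells expressing SK2 channels. SC100 is the compound concentration that increases basal current by 100%.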

SMILES	SC100 (μM)
Cc1nc(NC2CCC(F)(F)CC2)nc(-n2nc(C)c(Br)c2C)c1Br [NSSy6736, 5-bromo-4-(4-bromo-3,5-dimethyl-1H-pyrazol-1-yl)-N-(4,4-difluorocyclohexyl)-6-methylpyrimidin-2-amine]	+ (+ means >1 uM)
COCc1cc(-n2ccc(C)n2)nc(NC2CCC(F)(F)CC2)n1 [NSSy6744, N-(4,4-difluorocyclohexyl)-4-(methoxymethyl)-6-(3-methyl-1H-pyrazol-1-yl)pyrimidin-2-amine]	++ (++ means 200 nM-1000 nM)
Cc1csc(-c2cc(C(O)c3nnc(C)o3)cc(NC3CCC(F)(F)CC3)n2)n1 (centres unmarked) [NSSy6750, (2-((4,4-difluorocyclohexyl)amino)-6-(4-methylthiazol-2-yl)pyridin-4-yl)(5-methyl-1,3,4-oxadiazol-2-yl)methanol]	++ (++ means 200 nM-1000 nM)
Cc1ccn(-c2cc(CO)cc(Nc3ccc(F)cc3F)n2)n1 [NSSy6773]	++ (++ means 200 nM-1000 nM)
Cc1csc(-c2cc(C(O)Cc3nnco3)cc(NC3CCC(F)(F)CC3)n2)n1 (centres unmarked) [NSSy6782, 1-(2-((4,4-difluorocyclohexyl)amino)-6-(4-methylthiazol-2-yl)pyridin-4-yl)-2-(1,3,4-oxadiazol-2-yl)ethan-1-ol]	++ (++ means 200 nM-1000 nM)
Cc1ccn(-c2cc(CN(C)C)nc(NC3CCC(F)(F)CC3)n2)n1 [NSSy6783, N-(4,4-difluorocyclohexyl)-4-((dimethylamino)methyl)-6-(3-methyl-1H-pyrazol-1-yl)pyrimidin-2-amine]	++ (++ means 200 nM-1000 nM)
Cc1ccn(-c2cc(CC#N)nc(NC3CCC(F)(F)CC3)n2)n1 [NSSy6800, 2-(2-((4,4-difluorocyclohexyl)amino)-6-(3-methyl-1H-pyrazol-1-yl)pyrimidin-4-yl)acetonitrile]	++ (++ means 200 nM-1000 nM)
Cc1ccn(-c2cc(CO)cc(N(C(N)=O)C3CCC(F)(F)CC3)n2)n1 [NSSy6812, 1-(4,4-difluorocyclohexyl)-1-(4-(hydroxymethyl)-6-(3-methyl-1H-pyrazol-1-yl)pyridin-2-yl) urea]	+ (+ means >1 uM)
Cc1ccn(-c2cc(C(O)c3cnco3)cc(NC3CCC(F)(F)CC3)n2)n1 (centres unmarked) [NSSy6846]	+ (+ means >1 uM)
Cc1cn(CCOc2cc(NC3CCC(F)(F)CC3)nc(-n3ccc(C)n3)c2)nn1 [NSSy6849]	++ (++ means 200 nM-1000 nM)
COc1cc(NC2CCC(F)(F)CC2)nc(-n2ccc(C3CC3)n2)n1 [NSSy6850]	++ (++ means 200 nM-1000 nM)
COCc1cc(NC2CCC(F)(F)CC2)nc(-n2nc(C)cc2C)c1 [NSSy6861, N-(4,4-difluorocyclohexyl)-6-(3,5-dimethyl-1H-pyrazol-1-yl)-4-(methoxymethyl)pyridin-2-amine]	++ (++ means 200 nM-1000 nM)
COCc1cc(NC2CCC(F)(F)CC2)nc(-n2ccc(C3CC3)n2)n1 [NSSy6880]	++ (++ means 200 nM-1000 nM)
CC(O)c1cc(NC2CCC(F)(F)CC2)nc(-n2ccc(C3CC3)n2)n1 (centres unmarked) [NSSy6881, 1-(2-(3-cyclopropyl-1H-pyrazol-1-yl)-6-((4,4-difluorocyclohexyl)amino)pyrimidin-4-yl) ethan-1-ol]	+ (+ means >1 uM)
COC(=O)N1CCC(c2cc(NC3CCC(F)(F)CC3)nc(-n3ccc(C)n3)c2)CC1 [NSSy6885]	+++ (+++ means <200 nM)
CC(=O)N1CCN(c2cc(-n3ccc(F)n3)nc(NC3CCC(F)(F)CC3)n2)CC1 [NSSy6886]	+ (+ means >1 uM)
Cc1ccn(-c2cc(C3CCN(C)CC3)cc(NC3CCC(F)(F)CC3)n2)n1 [NSSy6888]	+++ (+++ means <200 nM)
COc1cc(NC2CCC(F)(F)CC2)nc(-c2cccc(C)n2)n1 [NSSy6889]	+ (+ means >1 uM)
Cc1ccn(-c2cc(COC(N)=O)cc(NC3CCC(F)(F)CC3)n2)n1 [NSSy6891, (2-((4,4-difluorocyclohexyl)amino)-6-(3-methyl-1H-pyrazol-1-yl)pyridin-4-yl)methyl carbamate]	++ (++ means 200 nM-1000 nM)
Cc1ccn(-c2cc(C3CCNCC3)cc(NC3CCC(F)(F)CC3)n2)n1 [NSSy6897, N-(4,4-difluorocyclohexyl)-6-(3-methyl-1H-pyrazol-1-yl)-4-(piperidin-4-yl)pyridin-2-amine]	++ (++ means 200 nM-1000 nM)
CC(=O)N1CCN(c2cc(-n3ccc(C4CC4)n3)nc(NC3CCC(F)(F)CC3)n2)CC1 [NSSy6909, 1-(4-(6-(3-cyclopropyl-1H-pyrazol-1-yl)-2-((4,4-difluorocyclohexyl)amino)pyrimidin-4-yl)piperazin-1-yl)ethan-1-one]	++ (++ means 200 nM-1000 nM)
CC(=O)N1CCC(c2cc(NC3CCC(F)(F)CC3)nc(-n3ccc(C)n3)c2)CC1 [NSSy6910]	+++ (+++ means <200 nM)
Cc1ccn(-c2cc(OC3CCS(=O)(=O)CC3)nc(NC3CCC(F)(F)CC3)n2)n1 [NSSy6913]	++ (++ means 200 nM-1000 nM)
CC(=O)N1CCC(Oc2cc(-n3ccc(C)n3)nc(NC3CCC(F)(F)CC3)n2)CC1 [NSSy6914]	+++ (+++ means <200 nM)

SMILES	SC100 (μM)
CC(=O)N1CCN(c2cc(-n3ccc(CF)n3)nc(NC3CCC(F)(F)CC3)n2)CC1 [NSSy6917]	++ (++ means 200 nM-1000 nM)
COC(=O)N1CCN(c2cc(-n3ccc(C)n3)nc(NC3CCC(F)(F)CC3)n2)CC1 [NSSy6924, methyl 4-(2-((4,4-difluorocyclohexyl)amino)-6-(3-methyl-1H-pyrazol-1-yl)pyrimidin-4-yl)piperazine-1-carboxylate]	++ (++ means 200 nM-1000 nM)
CC(=O)N1CCN(c2cc(-n3ccc(C(F)F)n3)nc(NC3CCC(F)(F)CC3)n2)CC1 [NSSy6930, 1-(4-(2-((4,4-difluorocyclohexyl)amino)-6-(3-(difluoromethyl)-1H-pyrazol-1-yl)pyrimidin-4-yl)piperazin-1-yl)ethan-1-one]	++ (++ means 200 nM-1000 nM)
CC(=O)N1CCN(c2cc(-n3ccc(CO)n3)nc(NC3CCC(F)(F)CC3)n2)CC1 [NSSy6931, 1-(4-(2-((4,4-difluorocyclohexyl)amino)-6-(3-(hydroxymethyl)-1H-pyrazol-1-yl)pyrimidin-4-yl)piperazin-1-yl)ethan-1-one]	+ (+ means >1 uM)
Cc1cc(NC2CCC(F)(F)CC2)nc(-n2ccc(C3CC3)n2)n1 [NSSy6935]	++ (++ means 200 nM-1000 nM)
COc1ccn(-c2cc(N3CCN(C(C)=O)CC3)nc(NC3CCC(F)(F)CC3)n2)n1 [NSSy6936]	+ (+ means >1 uM)
FC1(F)CCC(Nc2ccnc(-n3ccc(C4CC4)n3)n2)CC1 [NSSy6941, 2-(3-cyclopropyl-1H-pyrazol-1-yl)-N-(4,4-difluorocyclohexyl)pyrimidin-4-amine]	+ (+ means >1 uM)
FC1(F)CCC(Nc2nccc(-n3ccc(C4CC4)n3)n2)CC1 [NSSy6945, 4-(3-cyclopropyl-1H-pyrazol-1-yl)-N-(4,4-difluorocyclohexyl)pyrimidin-2-amine]	++ (++ means 200 nM-1000 nM)
CC(=O)N1CCN(c2cc(-n3nccc3C3CC3)nc(NC3CCC(F)(F)CC3)n2)CC1 [NSSy6957, 1-(4-(6-(5-cyclopropyl-1H-pyrazol-1-yl)-2-((4,4-difluorocyclohexyl)amino)pyrimidin-4-yl)piperazin-1-yl)ethan-1-one]	+ (+ means >1 uM)
Cc1ccn(-c2cc(N3CCOC(C(C)(C)O)C3)nc(NC3CCC(F)(F)CC3)n2)n1 (centres unmarked) [NSSy6958]	++ (++ means 200 nM-1000 nM)
CC(=O)N1CCN(c2cc(-n3ccc(O)n3)nc(NC3CCC(F)(F)CC3)n2)CC1 [NSSy6972, 1-(4-(2-((4,4-difluorocyclohexyl)amino)-6-(3-hydroxy-1H-pyrazol-1-yl)pyrimidin-4-yl)piperazin-1-yl) ethan-1-one]	+ (+ means >1 uM)
COC(=O)N1CCC(c2cc(-n3ccc(C)n3)nc(NC3CCC(F)(F)CC3)n2)CC1 [NSSy6981, methyl 4-(2-((4,4-difluorocyclohexyl)amino)-6-(3-methyl-1H-pyrazol-1-yl)pyrimidin-4-yl)piperidine-1-carboxylate]	+++ (+++ means <200 nM)
COC(=O)N1CCC(c2cc(NC3CCC(F)(F)CC3)nc(-n3ccc(C)n3)n2)CC1 [NSSy6982]	+++ (+++ means <200 nM)
Cc1ccn(-c2cc(N3CCOC(CO)C3)nc(NC3CCC(F)(F)CC3)n2)n1 (centres unmarked) [NSSy6986, (4-(2-((4,4-difluorocyclohexyl)amino)-6-(3-methyl-1H-pyrazol-1-yl)pyrimidin-4-yl)morpholin-2-yl)methanol]	++ (++ means 200 nM-1000 nM)
CC(=O)N1CCN(c2cc(-c3cccc(C)n3)nc(NC3CCC(F)(F)CC3)n2)CC1 [NSSy6989, 1-(4-(2-((4,4-difluorocyclohexyl)amino)-6-(6-methylpyridin-2-yl)pyrimidin-4-yl)piperazin-1-yl)ethan-1-one]	+ (+ means >1 uM)
COc1ccn(-c2nc(NC3CCC(F)(F)CC3)cc(N3CCOCC3)n2)n1 [NSSy6993]	++ (++ means 200 nM-1000 nM)
COc1ccn(-c2nc(C)cc(NC3CCC(F)(F)CC3)n2)n1 [NSSy6994, N-(4,4-difluorocyclohexyl)-2-(3-methoxy-1H-pyrazol-1-yl)-6-methylpyrimidin-4-amine]	++ (++ means 200 nM-1000 nM)
Cc1nn(-c2nc(NC3CCC(F)(F)CC3)cc(N3CCOCC3)n2)c(C)c1F [NSSy7011]	++ (++ means 200 nM-1000 nM)
Cc1cc(NC2CCC(F)(F)CC2)nc(-n2ccc(C3(C)CC3)n2)n1 [NSSy7012]	+ (+ means >1 uM)
FC1(F)CCC(Nc2cc(N3CCOCC3)nc(-n3ccc(Br)n3)n2)CC1 [NSSy7021]	+++ (+++ means <200 nM)
Cc1cc(NC2CCC(F)(F)CC2)nc(-n2ccc(O)n2)n1 [NSSy7027, 1-(4-((4,4-difluorocyclohexyl)amino)-6-methylpyrimidin-2-yl)-1H-pyrazol-3-ol]	+ (+ means >1 uM)
Cc1cc(NC2CCC(F)(F)CC2)nc(-n2ccc(-c3ccccc3)n2)n1 [NSSy7028]	+ (+ means >1 uM)
COc1cnc(-n2nc(C)cc2C)nc1NC1CCC(F)(F)CC1 [NSSy7031]	+ (+ means >1 uM)
